We go through 2 compounds from ChEMBL document CHEMBL1126394, “Synthesis of 1-(2-Indolyl)pyridinium salts: a prodrug approach to acetylcholinesterase inhibition” (Bioorg Med Chem Lett, 1992).

For data set [1], the target named is Acetylcholinesterase (Electrophorus electricus, UniProt O42275). The experiment in a line: Inhibitory activity against acetylcholinesterase as a prodrug was demonstarted.
The nature of data set [2]: pKa value was determined. It is filed as physicochemical.

Acetylcholinesterase, sequence (O42275 whole entry): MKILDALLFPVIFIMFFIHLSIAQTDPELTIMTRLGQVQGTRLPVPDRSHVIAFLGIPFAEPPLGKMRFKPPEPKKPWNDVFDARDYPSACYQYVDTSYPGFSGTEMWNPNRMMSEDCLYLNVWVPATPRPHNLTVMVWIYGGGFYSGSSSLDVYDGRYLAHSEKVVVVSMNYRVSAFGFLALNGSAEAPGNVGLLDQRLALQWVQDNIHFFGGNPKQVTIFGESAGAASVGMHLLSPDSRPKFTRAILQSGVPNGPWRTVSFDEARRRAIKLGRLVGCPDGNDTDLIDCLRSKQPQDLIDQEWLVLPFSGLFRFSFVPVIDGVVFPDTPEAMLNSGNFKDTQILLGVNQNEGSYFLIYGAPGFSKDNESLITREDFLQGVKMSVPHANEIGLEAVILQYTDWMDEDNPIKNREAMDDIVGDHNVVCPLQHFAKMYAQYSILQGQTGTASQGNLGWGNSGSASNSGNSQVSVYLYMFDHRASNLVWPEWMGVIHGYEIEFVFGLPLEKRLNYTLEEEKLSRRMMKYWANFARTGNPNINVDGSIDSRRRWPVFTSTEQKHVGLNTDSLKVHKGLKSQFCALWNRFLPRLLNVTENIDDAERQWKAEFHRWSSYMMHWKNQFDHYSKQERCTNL

By IC50 is commonly meant the concentration that gives 50% inhibition. Consider `CC1c2cc(OC(=O)N(C)C)ccc2NC1[n+]1cccc(C(N)=O)c1` (configuration not stated), for which the IC50 in data set [1] was determined as 50 µM.
By pKa is commonly meant the negative logarithm of the acid dissociation constant. A higher pKa goes with a group that holds its proton tightly. In turn, `CNC(=O)Oc1ccc2c(c1)[C@]1(C)CCN(C)[C@@H]1N2C` [PHYSOSTIGMINE] came in with a pKa in data set [2] of 7.9.
